Data on 18 sequences can be found in patent US9238796B2, “Cell growth-promoting peptide and use thereof” (TOAGOSEI CO., LTD., priority 2010, dated 2016).

No end group written: not given here.

In test [1] the test system is Rat bone marrow-derived stem cells (mesenchymal stem cells). Description: Evaluation of cell growth-promoting activity, WST-8 colorimetric method (Example 5). In kind it is cell-based. Conditions: WST-8 absorbance at 450 nm, peptide approximately 2 μM, bFGF 10 ng/mL; for OD450 at the start of cultivation: day 0; for OD450 after 4 days: day 4. How it is done:
Experimental sections were set up that used the cell growth-promoting peptides obtained in Example 4 (samples 22 to 42) as a cell growth promoter and that used a commercially available bFGF as a cell growth promoter as a comparative example. For the control, a peptide-free section (the bFGF was also not added) was set up.
(§1) The details of the evaluation testing are provided below. Each synthesized sample peptide was dissolved in PBS (phosphate-buffered physiological saline) to prepare a stock solution with a peptide concentration of 1 mM.
(§2) Rat bone marrow-derived stem cells (mesenchymal stem cells) were used as the test cells. Specifically, the test stem cells were cultured by passage on Dulbecco's MEM medium (DMEM medium: Gibco product) containing 10% fetal bovine serum (FBS: Gibco product), 2 mM of L-glutamine, 50 unit/mL of penicillin, and 50 μg/mL of streptomycin. From the second passage to the fourth passage (passages 2 to 4) were used in this evaluation testing.
(§3) Thus, the test stem cells were preliminarily recovered by treatment with a 0.05% trypsin-0.53 mM EDTA solution; a test stem cell solution, prepared with the DMEM medium containing 10 ng/mL of bFGF to provide 1×10^4 cells/mL, was seeded to each well of a 96-well plate to provide a cell count of 1×10^3 per well; and pre-cultivation was carried out overnight. The amount of medium was brought to 100 μL per well for this.
The medium in each well was then exchanged for fresh medium to which a stock solution of a peptide selected from sample 22 to 42 had been added, so as to give a concentration of the peptide in each well of approximately 2 μM. For comparison, in some wells the medium in the well was exchanged for fresh medium to which a commercially available bFGF (product of PeproTech) had been added to give a concentration of 10 ng/mL (the bFGF experimental section in Table 6).
(§4) After the addition of the sample peptide or bFGF as indicated above, the 96-well plate was placed in a CO2 incubator and cultivation at quiescence was carried out at 37° C. under 5% CO2. Medium exchange was performed every other day. The exchange medium was the same as that used at the start of cultivation (i.e., the same sample peptide or bFGF was also added to the exchange medium as in the sample peptide addition section or bFGF addition section).
During this cultivation test, a “water-soluble tetrazolium salt (WST-8)” was added as a chromogenic reagent to some wells at the start of cultivation (day 0) and at four days after the start of cultivation (day 4). After incubation for 2 hours after the addition, the cell culture fluid to which the chromogenic reagent had been added was recovered. The extent of cell growth was evaluated by a colorimetric method in which, based on reduction of the tetrazolium salt, the absorbance (OD450) at a wavelength of 450 nm was measured.
In general terms: Tetrazolium assays rely on reduction of a dye to a coloured formazan, in cell work by metabolically active cells.

Test [2] has the same test system. Description: Evaluation of cell growth-promoting activity, WST-8 colorimetric method (Example 2). The conditions noted are these: WST-8 absorbance at 450 nm, peptide approximately 2 μM, bFGF 10 ng/mL; for OD450 at the start of cultivation: day 0; for OD450 after 2 days: day 2; for OD450 after 4 days: day 4. In kind it is cell-based. As for the experimental part: Experimental sections were set up that used the cell growth-promoting peptides obtained in Example 1 (samples 1 to 21) as a cell growth promoter and that used a commercially available bFGF as a cell growth promoter as a comparative example. For the control, a peptide-free section (the bFGF was also not added) was set up.
as §1, §2, §3
The medium in each well was then exchanged for fresh medium to which a stock solution of a peptide selected from sample 1 to 21 had been added, so as to give a concentration of the peptide in each well of approximately 2 μM. For comparison, in some wells the medium in the well was exchanged for fresh medium to which a commercially available bFGF (product of PeproTech) had been added to give a concentration of 10 ng/mL (the bFGF experimental section in Table 3).
as §4
During this cultivation test, a “water-soluble tetrazolium salt (WST-8)” was added as a chromogenic reagent to some wells at the start of cultivation (day 0), at two days after the start of cultivation (day 2), and at four days after the start of cultivation (day 4). After incubation for 2 hours after the addition, the cell culture fluid to which the chromogenic reagent had been added was recovered. The extent of cell growth was evaluated by a colorimetric method in which, based on reduction of the tetrazolium salt, the absorbance (OD450) at a wavelength of 450 nm was measured.

With “LAAWTARAGKKRTLRKNDRKKR (LAAWTARAGKKRTLRKNDRKKR-NH2) [compound 30]”, in test [1], the “OD450 at the start of cultivation” value was determined as 0.051 and the “OD450 after 4 days” value stood at 0.413.

As to “LLAAWTARAGKKRTLRKNDRKKR (LLAAWTARAGKKRTLRKNDRKKR-NH2) [compound 29]”, in test [1], the “OD450 at the start of cultivation” value amounted to 0.051 and the “OD450 after 4 days” value is 0.434.

For the sequence “PGLALLLLAAWTARAGKKRTLRKNDRKKR (PGLALLLLAAWTARAGKKRTLRKNDRKKR-NH2) [compound 23]”, in test [1], the “OD450 at the start of cultivation” value is listed as 0.051 and the “OD450 after 4 days” value came to 0.391.

Consider “MLPGLALLGKKRTLRKNDRKKR (MLPGLALLGKKRTLRKNDRKKR-NH2) [compound 41]”, for which, in test [1], the “OD450 at the start of cultivation” value came out at 0.051 and the “OD450 after 4 days” value worked out at 0.311.

As to “MLPGLALLLLAAWTGKKRTLRKNDRKKR (MLPGLALLLLAAWTGKKRTLRKNDRKKR-NH2) [compound 35]”, in test [1], the “OD450 at the start of cultivation” value is reported as 0.051 and the “OD450 after 4 days” value is 0.299.

“LLLLAAWTARAGKKRTLRKNDRKKR (LLLLAAWTARAGKKRTLRKNDRKKR-NH2) [compound 27]”: in test [1], the “OD450 at the start of cultivation” value was 0.051 and the “OD450 after 4 days” value was 0.511.

As to “MLPGLALLLGKKRTLRKNDRKKR (MLPGLALLLGKKRTLRKNDRKKR-NH2) [compound 40]”, in test [1], the “OD450 at the start of cultivation” value came to 0.051 and the “OD450 after 4 days” value came to 0.487.

For the sequence “WTARAGKKRTLRKNDRKKR (WTARAGKKRTLRKNDRKKR-NH2) [compound 33]”, in test [1], the “OD450 at the start of cultivation” value is 0.051 and the “OD450 after 4 days” value is reported as 0.407.

“GLALLLLAAWTARAGKKRTLRKNDRKKR (GLALLLLAAWTARAGKKRTLRKNDRKKR-NH2) [compound 24]”: in test [1], the “OD450 at the start of cultivation” value worked out at 0.051 and the “OD450 after 4 days” value was 0.327.

In the case of “LLLAAWTARAGKKRTLRKNDRKKR (LLLAAWTARAGKKRTLRKNDRKKR-NH2) [compound 28]”, in test [1], the “OD450 at the start of cultivation” value was found to be 0.051 and the “OD450 after 4 days” value was determined as 0.532.

Consider “AAWTARAGKKRTLRKNDRKKR (AAWTARAGKKRTLRKNDRKKR-NH2) [compound 31]”, for which, in test [1], the “OD450 at the start of cultivation” value turned out to be 0.051 and the “OD450 after 4 days” value was determined as 0.401.

For the sequence “MLPGLALLLLGKKRTLRKNDRKKR (MLPGLALLLLGKKRTLRKNDRKKR-NH2) [sample 39]”, in test [1], the “OD450 at the start of cultivation” value worked out at 0.051 and the “OD450 after 4 days” value was 0.538.

For the sequence “ALLLLAAWTARAGKKRTLRKNDRKKR (ALLLLAAWTARAGKKRTLRKNDRKKR-NH2) [compound 26]”, in test [1], the “OD450 at the start of cultivation” value amounted to 0.051 and the “OD450 after 4 days” value was found to be 0.509.

“MLPSLALLLLAAWTVGKKRTLRKNDRKKR (MLPSLALLLLAAWTVGKKRTLRKNDRKKR-NH2) [compound 13]”: in test [2], the “OD450 at the start of cultivation” value worked out at 0.058, the “OD450 after 2 days” value is 0.123 and the “OD450 after 4 days” value amounted to 0.232.

For the sequence “MLPSLALLLGKKRTLRKNDRKKR (MLPSLALLLGKKRTLRKNDRKKR-NH2) [compound 19]”, in test [2], the “OD450 at the start of cultivation” value was 0.058, the “OD450 after 2 days” value turned out to be 0.163 and the “OD450 after 4 days” value is reported as 0.478.

In the case of “WTVRAGKKRTLRKNDRKKR (WTVRAGKKRTLRKNDRKKR-NH2) [compound 12]”, in test [2], the “OD450 at the start of cultivation” value stood at 0.058, the “OD450 after 2 days” value is 0.181 and the “OD450 after 4 days” value is reported as 0.388.

As for “MLPSLALLLLAGKKRTLRKNDRKKR (MLPSLALLLLAGKKRTLRKNDRKKR-NH2) [compound 17]”, in test [2], the “OD450 at the start of cultivation” value amounted to 0.058, the “OD450 after 2 days” value amounted to 0.176 and the “OD450 after 4 days” value was determined as 0.468.

Take “AAWTVRAGKKRTLRKNDRKKR (AAWTVRAGKKRTLRKNDRKKR-NH2) [compound 10]”: in test [2], the “OD450 at the start of cultivation” value is listed as 0.058, the “OD450 after 2 days” value came out at 0.149 and the “OD450 after 4 days” value was determined as 0.389.
